Laboratory results: article PMC5723097, “Molecular and functional characterization of ferredoxin NADP(H) oxidoreductase from Gracilaria chilensis and its complex with ferredoxin” (Biological Research, 2017)

System: T1, FNR^PBS (ferredoxin NADP(H) oxidoreductase)
T1 construct: gene petH; native enzyme in phycobilisome-enriched fraction; N-terminal peptides MAAVDKKK (1-8), VPINIFRPK (9-17); not recombinant
Assay: diaphorase assay, NADPH oxidation at […] nm, Michaelis-Menten fit
Type: biochemical, Gracilaria chilensis
Conditions: 0.15 mM DCPIP as acceptor, 50 mM Tris-HCl pH 8, 1 mM Na2EDTA; phycobilisome-enriched fraction, high salt

NC(=O)C1=CN([C@@H]2O[C@H](COP(=O)(O)OP(=O)(O)OC[C@H]3O[C@@H](n4cnc5c(N)ncnc54)[C@H](OP(=O)(O)O)[C@@H]3O)[C@@H](O)[C@H]2O)C=CC1 [NADPH]
Km: 12.5 ± 1.8 µM
